Test results published in patent publication US20190255138A1, “A NATURAL COMPOSITION TO INHIBIT BETA-SECRETASE AND ENHANCE BIOAVAILABILITY COMPRISING OF TURMERIC AND SESAME SEED EXTRACT” (priority 2016, published 2019).
Non-standard residues stand in square brackets, D forms with d. No end group written: not given here. Sta = CC(C)C[C@H](N)[C@@H](O)CC(=O)O

Target: β-Secretase (human, recombinant) (Homo sapiens, UniProt P56817)
Assay: β-Secretase inhibitory activity assay (fluorescent substrate, HPLC peak area of degradative fragment)
Type: biochemical
Conditions: inhibitor 2 μg/ml; for Peak area ± S.D.: mean ± S.D. of triplicates
Method: (§1) β-Secretase (human, recombinant), A fluorescent substrate [MOCAc-[…](Dnp) Arg-Arg-NH2] and a β-secretase inhibitor[[…]Sta-Val-Ala-Glu-Phe(Sta:(3S,4S)-4-amino-3-hydroxy-6-methylheptanoic acid)] Other reagents used in this study were analytical grade. Sesamin-sesamolin in different ratios prepared as per examples 10.
(§2) Samples in a dimethylsulfoxide solution (2 μl), at an appropriate concentration, were diluted with 78 μl of assay buffer (20 mM acetate buffer, pH=4.5 containing 1% triton X-100) in a 96-well microplate. 10 μl of β-secretase solution in assay buffer (17.4 μg protein/ml) was added to the diluted solution, and incubated at 37° C. for 20 min. After incubation, 10 μl of substrate solution with assay buffer (0.1 mM) was added and incubated at 37° C. for 2 h. Fifty μl of reaction solution was then added to 450 μl of 2.5 M sodium acetate solution to terminate the reaction. The diluted solution was analyzed by HPLC applying the conditions listed below. Column: L-column ODS (Chemicals Evaluation and Research Institute, Tokyo, Japan, 4.6 i.d.×250 mm), mobile phase; 0.1% (v/v) formic acid/acetonitrile (0.1% (v/v) formic acid); 0 min (9:1), 17.5 min (5.5:4.5), 17.6 min (0.5:9.5), 22.5 min (0.5:9.5), column temperature: 40° C., flow rate; 1 ml/min, detection; fluorescent of excitation at 325 nm and emission at 395 nm, injection volume; 20 μl. The peak area of the peak derived from the degradative fluorescent fragment (retention time 15.7 min) was integrated and the peak area was found. The inhibitory activity of the sample was calculated using the following equation.
Inhibition (%)=100−[(Peak area from sample group)/(Peak area from control group)×100]
as §1, with “recombinant).” for “recombinant),”, “acid)].” for “acid)]”, “Essential oil of turmeric (EOT) with” for “Sesamin-sesamolin in”, “percentage of α-turmerone” for “ratios”, “2.” for “10.”
as §2, with “temperature;” for “temperature:”
β-Secretase (human, recombinant), A fluorescent substrate [MOCAc-[…](Dnp) Arg-Arg-NH2] and a β-secretase inhibitor[[…]Sta-Val-Ala-Glu-Phe(Sta:(3S,4S)-4-amino-3-hydroxy-6-methylheptanoic acid)]. Other reagents used in this study were analytical grade.
Samples in a dimethylsulfoxide solution (2 μl), at an appropriate concentration, were diluted with […] of assay buffer (20 mM acetate buffer, pH=4.5 containing 1% triton X-100) in a 96-well microplate. 10 μl of β-secretase solution in assay buffer (17.4 μg protein/ml) was added to the diluted solution, and incubated at 37° C. for 20 min.

β-Secretase (human, recombinant), sequence (P56817 46-501): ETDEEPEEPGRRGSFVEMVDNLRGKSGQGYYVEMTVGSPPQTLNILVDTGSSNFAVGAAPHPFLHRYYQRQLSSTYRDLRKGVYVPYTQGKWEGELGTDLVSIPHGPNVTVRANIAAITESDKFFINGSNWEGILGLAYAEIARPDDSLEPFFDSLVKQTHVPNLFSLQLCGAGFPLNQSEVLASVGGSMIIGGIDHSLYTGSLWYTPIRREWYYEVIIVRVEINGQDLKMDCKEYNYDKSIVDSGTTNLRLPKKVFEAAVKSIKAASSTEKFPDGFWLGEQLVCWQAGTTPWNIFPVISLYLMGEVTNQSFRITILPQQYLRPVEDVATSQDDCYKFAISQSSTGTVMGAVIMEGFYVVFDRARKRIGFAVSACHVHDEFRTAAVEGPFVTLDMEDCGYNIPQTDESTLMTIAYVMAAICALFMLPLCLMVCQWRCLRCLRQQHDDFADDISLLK

KTEEISEVN[Sta]VAEF [Inhibitor]
Inhibition (%) (Example 17): 47.33%
Peak area ± S.D. (Example 17): 2256512 ± 24323
Inhibition (%) (Example 18): 45.67%
Peak area ± S.D. (Example 18): 2386115 ± 25498
Inhibition (%) (Example 19): 48.31%
Peak area ± S.D. (Example 19): 2418426 ± 23621
Inhibition (%) (Example 20): 48.8%
Peak area ± S.D. (Example 20): 2299129 ± 25842
Inhibition (%) (Example 22): 45.77%
Peak area ± S.D. (Example 22): 2385632 ± 27453
